Experimental data: US11248024B2, “Noxa-derived, cell death-inducing peptide eMTD” (INDUSTRY-ACADEMIC COOPERATION FOUNDATION, CHOSUN UNIVERSITY, priority 2019, dated 2022)
Ends that are not written are not given here.

How the values were obtained:
HeLa cells [1] = test: Mitochondrial PTP opening, calcein AM and cobalt ions; assay type: cell-based, human; conditions: calcein AM 1 μM and cobalt ions 2 mM
Method: Mitochondria are known to open permeability transition pores (PTP) to allow cytosolic calcium influx. The observation that eMTDΔ4 (SEQ ID NO: 2) migrates to mitochondria and induces cytosolic calcium influx led to investigating the association of the action of eMTDΔ4 (SEQ ID NO: 2) with PTP. To this end, PTP opening was monitored using calcein AM and cobalt ions.
In brief, HeLa cells were grown on a Lab-Tek chamber glass slide one day before the experiment. Immediately before the experiment, the cells were stained with 1 μM of calcein AM and 2 mM of cobalt ions for 20 min and then with 0.1 μM of MitoTracker Red for 2 min. When PTP is opened, mitochondrial calcein AM meets cobalt ions so that the fluorescence of calcein AM is quenched.

HeLa cells [2] = test: Intracellular calcium level, Fluo-4, confocal microscope; assay type: cell-based, human; conditions: Fluo-4, 20 μM (FIG. 4)
Method: In order to examine the mechanism in which the peptide eMTD (SEQ ID NO: 1) induces cell death in cancer cell lines, a change in intracellular calcium level, which is known as an important factor for cell death, was observed using the calcium indicator Fluo-4 under a confocal microscope (Leica).
In brief, HeLa cells were grown to about 70% confluency in a Lab-Tek chamber glass a day before the experiment. Immediately before the experiment, of the calcium indicator Fluo-4 was diluted to a concentration of 5 in HBSS. HeLa cells were incubated with the dilution for 10 min in an incubator and then treated with the peptide eMTDΔ4 (SEQ ID NO: 2).

MDA-MB-231 cells = test: Atomic force microscopy of pores formed on the cell membrane; assay type: cell-based
Method: In this regard, MDA-MB-231 cells were treated with eMTDΔ4 (SEQ ID NO: 2) and pores formed on the cell membrane were observed using an atomic force microscope.

B16F10 = test: MTS assay, relative cell viability, B16F10; assay type: cell-based, murine
Method: (§1) Individual cell lines (HeLa, CT26, and B16F10) were purchased from the Korean Cell Line Bank. Dulbecco's modified Eagle's medium (DMEM), trypsin-EDTA, fetal bovine serum (FBS), and Hank's balanced salt solution (HBSS) were products from Gibco (Thermo Fisher).
(§2) Each of the cell lines was cultured in DMEM supplemented with 10% FBS in an incubator maintained at 37° C. and 5% 002.
(§3) Examination was made to see whether the peptide has the activity of inducing cell death in other cancer cell lines. In this regard, the cancer cell lines HeLa, CT26, and B16F10 were treated with eMTDΔ4 (SEQ ID NO: 2) at concentrations of 0, 20, and 40 μM.

CT26 = test: MTS assay, relative cell viability, CT26; assay type: cell-based, murine
Method: as §1, §2
Examination was made to see whether the peptide has the activity of inducing cell death in other cancer cell lines. […]

HeLa cells [3] = test: Microscopic observation of morphological change in cells; assay type: cell-based, human; conditions: 20 μM, 3 min
Method: In order to observe morphological changes in cells in detail, the cells were incubated with 20 μM of the peptide eMTDΔ4 (SEQ ID NO: 2) and observed with the aid of a microscope (Leica). The results are depicted in FIG. 2.

HeLa [4] = test: MTS assay, relative cell viability, HeLa; assay type: cell-based, human; conditions: 10 μM, Table 4
[5] = Two-step assay, damage on lipid membrane of liposomes (TbCl3/DPA fluorescence); assay type: biochemical; conditions: for Relative Fluorescence Intensity: liposomes, excitation 276 nm, read at 490 nm
Method: In brief, DOPS, DOPE, and DOPC (Avanti Polar Lipids) were dissolved at the ratio of 2:4:3 in chloroform, followed by vaporization. The residue was again dissolved at the concentration of 2 mg/mL in TbCl3 buffer (15 mM TbCl3, 50 mM sodium citrate, 20 mM HEPES, 150 mM NaCl, pH 7.4). The lipid mixture was extruded by Mini extruder (Avanti Polar Lipids) with a 400 nm to prepare liposomes which were washed with washing buffer (150 mM NaCl, 20 mM HEPES, pH 7.4) and then resuspended in an assay buffer (50 DPA, […], 20 mM HEPES, pH 7.4). The suspension was plated into 96-well plates and treated with 0, 10, or 25 μM of eMTD (SEQ ID NO: 1) or eMTDΔ4 (SEQ ID NO: 2). After stimulation with 276 nm laser, fluorescence was read at 490 nm.

HeLa [6] = test: MTS assay, relative cell viability, HeLa; assay type: cell-based, human
Method: as §1, §2
For use in assaying the peptides eMTD (SEQ ID NO: 1) and eMTDΔ4 (SEQ ID NO: 2) synthesized in Example 1 for activity of inducing cell death, the cell line HeLa was grown to about 90% confluency in 96-well plates. The cells were washed once with HBSS buffer before treatment with the peptides of the present disclosure eMTD (SEQ ID NO: 1) and eMTDΔ4 (SEQ ID NO: 2) at concentrations of 0, 20, and 40 for one hour. Thereafter, the cells were incubated with an MTS assay agent (Promega) for one hour, followed by reading absorbance to calculate relative viability of cells.
as §3

## KLNFRQKLLNLISKLF [eMTDΔ4]
HeLa cells [1]
  mitochondrial PTP opening (calcein AM fluorescence): fluorescence of mitochondrial calcein AM was quenched
HeLa cells [2]
  change in intracellular calcium level: calcium influx into the cytosols thereof within less than one min
MDA-MB-231 cells; Length 0.675~0.975, t = 30 sec
  Counts of membrane pores: 38.03
MDA-MB-231 cells; Length 0.675~0.975, t = 2 min
  Counts of membrane pores: 20.63
MDA-MB-231 cells; Length 0.675~0.975, t = 5 min
  Counts of membrane pores: 14.81
MDA-MB-231 cells; Length 0.675~0.975, t = 40 min
  Counts of membrane pores: 2.5
MDA-MB-231 cells; Length 1.025~1.325, t = 30 sec
  Counts of membrane pores: 43.66
MDA-MB-231 cells; Length 1.025~1.325, t = 2 min
  Counts of membrane pores: 38.1
MDA-MB-231 cells; Length 1.025~1.325, t = 5 min
  Counts of membrane pores: 39.51
MDA-MB-231 cells; Length 1.025~1.325, t = 40 min
  Counts of membrane pores: 22.5
MDA-MB-231 cells; Length 1.375~1.675, t = 30 sec
  Counts of membrane pores: 9.859
MDA-MB-231 cells; Length 1.375~1.675, t = 2 min
  Counts of membrane pores: 20.63
MDA-MB-231 cells; Length 1.375~1.675, t = 5 min
  Counts of membrane pores: 20.99
MDA-MB-231 cells; Length 1.375~1.675, t = 40 min
  Counts of membrane pores: 22.5
MDA-MB-231 cells; Length 1.725~2.025, t = 30 sec
  Counts of membrane pores: 4.225
MDA-MB-231 cells; Length 1.725~2.025, t = 2 min
  Counts of membrane pores: 14.29
MDA-MB-231 cells; Length 1.725~2.025, t = 5 min
  Counts of membrane pores: 13.58
MDA-MB-231 cells; Length 1.725~2.025, t = 40 min
  Counts of membrane pores: 22.5
MDA-MB-231 cells; Length 2.075~2.725, t = 30 sec
  Counts of membrane pores: 2.817
MDA-MB-231 cells; Length 2.075~2.725, t = 2 min
  Counts of membrane pores: 6.349
MDA-MB-231 cells; Length 2.075~2.725, t = 5 min
  Counts of membrane pores: 9.877
MDA-MB-231 cells; Length 2.075~2.725, t = 40 min
  Counts of membrane pores: 22.5
MDA-MB-231 cells; Length 2.775<, t = 30 sec
  Counts of membrane pores: 0
MDA-MB-231 cells; Length 2.775<, t = 2 min
  Counts of membrane pores: 0
MDA-MB-231 cells; Length 2.775<, t = 5 min
  Counts of membrane pores: 1.235
MDA-MB-231 cells; Length 2.775<, t = 40 min
  Counts of membrane pores: 7.5
MDA-MB-231 cells; Length >0.625, t = 30 sec
  Counts of membrane pores: 1.408
MDA-MB-231 cells; Length >0.625, t = 2 min
  Counts of membrane pores: 0
MDA-MB-231 cells; Length >0.625, t = 5 min
  Counts of membrane pores: 0
MDA-MB-231 cells; Length >0.625, t = 40 min
  Counts of membrane pores: 0
MDA-MB-231 cells; MDA-MB-231, FIG. 10d and Table 7
  pore formation on cell membrane (in words): larger pores were formed with time
B16F10; B16F10, 10 μM
  Viability (%): 68%
B16F10; B16F10, 20 μM
  Viability (%): 33%
B16F10; B16F10, FIG. 3 and Table 4
  induction of cell death (in words): induce cell death
CT26; CT26, 10 μM
  Viability (%): 69%
CT26; CT26, 20 μM
  Viability (%): 21%
CT26; CT26, FIG. 3 and Table 4
  induction of cell death (in words): induce cell death
HeLa cells [3]
  morphological change in cells: most of the cells were observed to undergo necrosis with the consequent rupture of cell membranes after 3 min
HeLa [4]
  Viability (%): 47%
[5]; FIGS. 10A to 10C and Table 6
  liposome lipid membrane damage (in words): higher fluorescence intensity was detected
[5]; 10 μM
  Relative Fluorescence Intensity: 25%
[5]; 25 μM
  Relative Fluorescence Intensity: 51%
HeLa [6]; 20 μM, Table 4
  Viability (%): 11%
HeLa [6]; 20 μM, one hour treatment, Table 3
  Viability (%): 53%
HeLa [6]; 40 μM, one hour treatment, Table 3
  Viability (%): 40%
HeLa [6]; FIG. 1 and Table 3
  cell death activity (in words): potent cell death activity
HeLa [6]; FIG. 3 and Table 4
  induction of cell death (in words): induce cell death
